biological target: Acetylcholinesterase (Electrophorus electricus, UniProt O42275); experiment: Inhibition of electric eel AChE by modified Ellman method
Sequence (O42275 whole entry): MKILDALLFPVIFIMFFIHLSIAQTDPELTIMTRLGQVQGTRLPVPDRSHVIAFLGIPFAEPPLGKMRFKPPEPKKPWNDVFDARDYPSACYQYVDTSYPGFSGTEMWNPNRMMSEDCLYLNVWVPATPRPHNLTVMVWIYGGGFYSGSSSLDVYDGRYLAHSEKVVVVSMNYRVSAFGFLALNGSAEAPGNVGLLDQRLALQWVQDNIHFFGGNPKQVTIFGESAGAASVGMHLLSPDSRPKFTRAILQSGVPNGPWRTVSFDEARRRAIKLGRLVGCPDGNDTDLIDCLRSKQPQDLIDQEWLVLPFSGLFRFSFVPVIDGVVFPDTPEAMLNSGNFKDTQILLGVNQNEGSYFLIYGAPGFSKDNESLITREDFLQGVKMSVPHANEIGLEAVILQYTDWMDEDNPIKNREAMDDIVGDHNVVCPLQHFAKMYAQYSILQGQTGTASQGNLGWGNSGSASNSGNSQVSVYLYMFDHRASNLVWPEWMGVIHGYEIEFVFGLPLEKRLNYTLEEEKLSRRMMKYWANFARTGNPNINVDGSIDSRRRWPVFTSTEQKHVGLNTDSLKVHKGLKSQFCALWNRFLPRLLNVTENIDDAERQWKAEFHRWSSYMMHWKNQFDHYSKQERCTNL

Row | Compound | IC50 [µM]
1 | O=C1/C(=C/c2ccccc2)CN2CC13[C@@H](c1ccccc1)C1CCCN1C31C(=O)c3ccccc3C21O (stereo not given in full) | 6.86
2 | Cc1ccccc1/C=C1\CN2CC3(C1=O)[C@@H](c1ccccc1C)C1CCCN1C31C(=O)c3ccccc3C21O (stereo not given in full) | 1.2
3 | O=C1/C(=C/c2ccccc2Cl)CN2CC13[C@@H](c1ccccc1Cl)C1CCCN1C31C(=O)c3ccccc3C21O (stereo not given in full) | 5.12
4 | O=C1/C(=C/c2ccc(Cl)cc2Cl)CN2CC13[C@@H](c1ccc(Cl)cc1Cl)C1CCCN1C31C(=O)c3ccccc3C21O (stereo not given in full) | 12.2
5 | O=C1/C(=C/c2cccc([N+](=O)[O-])c2)CN2CC13[C@@H](c1cccc([N+](=O)[O-])c1)C1CCCN1C31C(=O)c3ccccc3C21O (stereo not given in full) | 6.2
6 | Cc1ccc(/C=C2\CN3CC4(C2=O)[C@@H](c2ccc(C)cc2)C2CCCN2C42C(=O)c4ccccc4C32O)cc1 (stereo not given in full) | 0.72
7 | O=C1/C(=C/c2ccc(Cl)cc2)CN2CC13[C@@H](c1ccc(Cl)cc1)C1CCCN1C31C(=O)c3ccccc3C21O (stereo not given in full) | 11.2
8 | O=C1/C(=C/c2ccc(Br)cc2)CN2CC13[C@@H](c1ccc(Br)cc1)C1CCCN1C31C(=O)c3ccccc3C21O (stereo not given in full) | 9.26
9 | O=C1/C(=C/c2ccc(F)cc2)CN2CC13[C@@H](c1ccc(F)cc1)C1CCCN1C31C(=O)c3ccccc3C21O (stereo not given in full) | 11.3
10 | O=C1/C(=C/c2cccc3ccccc23)CN2CC13[C@@H](c1cccc4ccccc14)C1CCCN1C31C(=O)c3ccccc3C21O (stereo not given in full) | 2.12

Source: ChEMBL document CHEMBL1795302, “Synthesis and discovery of novel hexacyclic cage compounds as inhibitors of acetylcholinesterase” (Bioorg Med Chem Lett, 2011)
